Assay type in all cases: in vivo
Series [1] concerns souris. As to the kind of experiment: Spontaneous motility (actimeter). The note with it: recorded for 0,5 h, 0.5 h after dosing. On the procedure: (§1) Dans ces essais les produits à tester en solution dans de l'eau distillée (pH5) ont été administrés, par voie intrapéritonéale, sous un volume de 20 ml/kg chez la souris mâle, et, sous un volume de 5 ml/kg chez le rat mâle.
Une demi-heure après avoir reçu les produits à tester, les souris (6 par dose, 12 témoins) sont placées en actimètre où leur motilité est enregistrée pendant 0,5 h.

Series [2] relates to souris. Kind of series: Interaction with reserpine. How it is done:
as §1
Quatre heures après l'injection intrapéritonéale de 2,5 mg/kg de réserpine, des lots de 6 souris reçoivent chaque produit à tester.

The subject of series [3] is souris. As to the kind of experiment: Acute toxicity, intraperitoneal, mouse. The note with it: I.P. How it is done:
as §1
Le CRL 40 996 est moins toxique que les CRL 40 995 et CRL 40 827. En effet si la DL-0 (dose maximale non mortelle) des trois substances est supérieure ou égale à 64 mg/kg (I.P.; souris), la DL-60 du CRL 40 996 est de l'ordre de 128 mg/kg (I.P.; souris)et la DL-100 des CRL 40 995 et CRL 40 827 est inférieure ou égale à 128 mg/kg (I.P.; souris).

Series [4] concerns souris. Kind of series: Global behaviour and reactivities, mouse. The note with it: for comportement et réactivités: doses of 2 and 0,5 mg/kg i.p. How it is done: as §1
(§2) Des lots de 6 animaux sont observés avant, puis 0,25 h, 0,50 h, 1 h, 2 h, 3 h, et 24 h après administration des produits à étudier.

For series [5], the system named is souris. As to the kind of experiment: Interaction with apomorphine. The note with it: 0.5 h before apomorphine 16 mg/kg s.c. How it is done:
as §1
Des lots de 6 souris reçoivent chaque produit à tester une demi-heure avant l'injection sous-cutanée de 16 mg/kg d'apomorphine.

In a further series the test system is rat. Kind of series: Global behaviour and reactivities, rat. How it is done:
as §1, §2

Series [6] deals with souris. Kind of series: Interaction with oxotremorine. The note with it: for tremblements provoqués par l'oxotrémorine / effet hypothermisant de l'oxotrémorine: 0.5 h before oxotremorine 0,5 mg/kg i.p. How it is done: as §1
Chaque produit à tester est administré à des lots de 6 souris une demi-heure avant l'injection intrapéritonéale de 0,5 mg/kg d'oxotrémorine.

The test system of series [7] is souris. Kind of series: Behavioural despair (immobility in water). The note with it: 0.5 h before immersion. How it is done: as §1
Une demi-heure après avoir reçu les produits à tester, des lots de 6 souris sont placés dans un bécher rempli d'eau sur une hauteur de 6 cm. On note la durée totale d'immobilité entre la 2ème et la 6ème minutes suivant l'immersion.

The test system of the next series is homme. Kind of series: Clinical use in depressive states. The settings on record: oral route, human. On the procedure:
La posologie préconisée consiste à administrer par jour 3 comprimés ou gélules renfermant chacun 3 à 4 mg de CRL 40 996.

The mark [8] stands for this setting: 32 mg/kg i.p., 4 h after reserpine 2,5 mg/kg i.p.
Setting [9] is: doses of 0,5, 2 and 8 mg/kg i.p., 4 h after reserpine 2,5 mg/kg i.p.
The mark [10] stands for this setting: peripheral cholinergic symptoms after oxotremorine 0,5 mg/kg i.p.
[11] abbreviates: from the dose of 0.5 mg/kg i.p.
Where [12] appears, read: from the dose of 0,5 mg/kg i.p.

This note sets out measurements from patent EP0146443A1, “(-)-1-(2-Fluorophenyl)-2-tertiobutylamino-1-ethanol and therapeutical use” (LABORATOIRE L. LAFON Société anonyme dite:, priority 1983, dated 1985).

For the compound `CC(C)(C)NCC(O)c1ccccc1F` (single isomer, unassigned) [CRL 40 995, chlorhydratede (+)-1-(2-fluorophényl)-2-tertio-butylamino-1-éthanol], in the series with souris [1] (doses of 8 and 32 mg/kg i.p.), the “activité motrice spontanée” value is “diminue modérément”. Besides, in the series with souris [2] (setting [8]), the “antagonisme de l'hypothermie réserpinique (animals showing it)” value was 5 souris sur 6 and the “perte du réflexe de redressement (et l'hypothermie qui en résulte)” value is 1 souris sur 6. Also, in the series with souris [2] (setting [9]), the “hypothermie réserpinique” value is “s'oppose modérément” and the ptôsis entry is “sans modifier”. Moreover, in the series with souris [3], the “DL-0 (dose maximale non mortelle)” value was ≥ 64 mg/kg and the DL-100 was ≤ 128 mg/kg. Moreover, in the series on souris [4], the “comportement et réactivités” value is given as “sans modifications sensibles par rapport aux animaux témoins”. Moreover, in the series with souris [4] (doses of 32 and 8 mg/kg i.p.), the “respiration déprimée (duration)” value is 0,5 h. Besides, in the series with souris [5] (doses of 8 and 32 mg/kg i.p.), the “action hypothermisante de l'apomorphine” value is given as “s'oppose” and the “comportement de verticalisation et stéréotypies” value is given as “sans modifier”. The “comportement et réactivités” value in the series with rat (doses of 16, 4, 1 and 0,5 mg/kg i.p.) is “sans modifications sensibles par rapport aux animaux témoins”. For the same compound, the “tremblements provoqués par l'oxotrémorine” value in the series with souris [6] (32 mg/kg i.p., worded as 'seems') is reported as “potentialiser”. For the same compound, the “effet hypothermisant de l'oxotrémorine” value with souris [6] (i.p., dose not stated) is recorded as “n'est pas modifié”. In addition, the “signes de stimulation cholinergique” value with souris [6] (setting [10]) is reported as “laissent inchangés”. Moreover, the “durée de l'immobilité dite du "désespoir comportemental"” value in the series with souris [7] (i.p., dose not stated) was “ne modifie pas”.
On to `CC(C)(C)NCC(O)c1ccccc1F` (single isomer, unassigned) [CRL 40 996, chlorhydratede (-)-1-(2-fluorophényl)-2-tertio-butylamino-1-éthanol], for which the “activité motrice spontanée” value in the series on souris [1] (doses of 8 and 32 mg/kg i.p.) is given as “diminution très importante”. Moreover, in the series on souris [2] (setting [11]), the “latence de l'effet sur l'hypothermie réserpinique” value was ~1 heure and the ptôsis entry was “sans modifier”. Besides, the “hypothermie réserpinique” value with souris [2] (from the dose of 0.5 mg/kg i.p., effect does not clearly increase with dose) is recorded as “combat modérément”. Moreover, in the series on souris [3], the “DL-0 (dose maximale non mortelle)” value is on record as ≥ 64 mg/kg and the DL-60 is reported as ~128 mg/kg. In addition, in the series on souris [4] (8 mg/kg i.p.), the “diminution de la réactivité au toucher et du tonus musculaire (duration)” value is listed as 0,25 h, the hypothermie is -1,8 °C, the “hypothermie (duration)” value is recorded as 0,25 h and the “sédation (duration)” value is 0,5 h. For the same compound, in the series with souris [4] (32 mg/kg i.p.), the “diminution de la réactivité au toucher et du tonus musculaire (duration)” value is 0,25 h, the “disparition du "pinna reflex" (duration)” value is 0,5 h, the hypothermie was -2,0 °C and the “sédation (duration)” value is recorded as 0,5 h. The “comportement et réactivités” value in the series on souris [4] is reported as “sans modifications sensibles par rapport aux animaux témoins”. Also, in the series on souris [5] (setting [12]), the “comportement de verticalisation et stéréotypies” value is reported as “sans modifier” and the “hypothermie induite par l'apomorphine” value was “antagonisme net”. Moreover, in the series on homme, the “effet antidépresseur dans le traitement des états dépressifs” value is “bon agent antidépresseur”. Moreover, the “sédation fugace (duration)” value in the series on rat (4 mg/kg i.p.) is on record as 0,25 h. For the same compound, in the series on rat (16 mg/kg i.p.), the “dyspnée (duration)” value was 1 h and the “sédation (duration)” value was 0,5 h. For the same compound, in the series on rat (doses of 1 and 0,25 mg/kg i.p.), the “comportement et réactivités” value is given as “sans modifications sensibles par rapport aux animaux témoins”. In the series with souris [6] (i.p., dose not stated), the “effet hypothermisant de l'oxotrémorine” value is on record as “an- tagonisé” and the “tremblements provoqués par l'oxotrémorine” value is recorded as “ne sont pas modifiés”. Also, in the series on souris [6] (setting [10]), the défécation entry was “semble diminuer” and the salivation et lacrymation entry is “sans modifier”. In the series on souris [7] (doses of 8 and 32 mg/kg i.p.), the “durée d'immobilité” value is recorded as “diminue modérément”.
Turning to `CC(C)(C)NCC(O)c1ccccc1F` (racemic) [CRL 40 827, chlorhydratede ( + )-1-(2-fluorophényl)-2-tertiobutylamino-1-éthanol], the “activité motrice spontanée” value in the series on souris [1] (8 mg/kg i.p.) is “ne modifie pas”. Moreover, the “activité motrice spontanée” value with souris [1] (32 mg/kg i.p.) was “semble la diminuer modérément mais pas significativement”. Also, in the series with souris [3], the “DL-0 (dose maximale non mortelle)” value is given as ≥ 64 mg/kg and the DL-100 is ≤ 128 mg/kg. Moreover, in the series with souris [6] (i.p., dose not stated), the “effet hypothermisant de l'oxotrémorine” value is “an- tagonisé” and the “tremblements provoqués par l'oxotrémorine” value is given as “ne sont pas modifiés”. Also, the “signes de stimulation cholinergique” value with souris [6] (setting [10]) is reported as “laissent inchangés”.
